Reference: patent publication US7612065B2, “Inhibitors of c-JUN N-terminal kinases (JNK)” (priority 2007, dated 2009)

target: T1, JNK3 (Homo sapiens, UniProt P53779); experiment: JNK inhibition assay: spectrophotometric coupled-enzyme assay with activated JNK3; assay type: biochemical; conditions: activated JNK3 10 nM, 10 μM ATP, 200 μM EGF receptor peptide, 30° C., competitive inhibition model
T1 construct: One such construct encodes amino acid residues Ser40-Glu402 of JNK3α1 and is preceded by Met and Gly residues; Met-Gly (initiation methionine plus glycine added for the NcoI site); made in house; host or cells: E. coli BL21 (DE3)
T1 sequence (P53779 40-402): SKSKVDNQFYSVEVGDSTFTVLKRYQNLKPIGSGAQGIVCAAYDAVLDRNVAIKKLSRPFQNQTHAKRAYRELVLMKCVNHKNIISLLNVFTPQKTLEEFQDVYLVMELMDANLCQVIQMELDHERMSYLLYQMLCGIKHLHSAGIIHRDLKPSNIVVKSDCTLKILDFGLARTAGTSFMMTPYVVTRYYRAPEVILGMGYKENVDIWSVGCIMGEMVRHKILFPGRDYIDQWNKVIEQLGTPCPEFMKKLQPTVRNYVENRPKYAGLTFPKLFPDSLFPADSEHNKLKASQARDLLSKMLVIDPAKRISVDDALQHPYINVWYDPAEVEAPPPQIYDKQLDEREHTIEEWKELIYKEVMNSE
Procedure, shortened: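 Activated (doubly phosphorylated, MKK7(DD)-activated) human JNK3, 10 nM, preincubated 10 min at 30 °C with inhibitor in 0.1 M HEPES pH 7.5, 10 mM MgCl2, 200 μM EGF receptor peptide, PK/LDH-coupled. Started with 10 μM ATP; A340 decrease followed at 30 °C. Ki from competitive inhibition model fit.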

SMILES	Ki [nM]
COc1ccc(CCNC(=O)c2ccc3c(c2)N(Cc2cc(F)cc4c2OCOC4)C(=O)/C3=N\O)cc1OC [Compound 232]	≥ 1000
Cc1ccc(C(=O)c2ccc3c(c2)/C(=N/O)C(=O)N3Cc2cc(F)cc3c2OCOC3)cc1 [Compound 349]	≥ 1000
O=C1/C(=N\O)c2cc(Cl)ccc2N1Cc1c(Cl)cccc1Cl [Compound 4]	< 1000
C/C=C/c1cccc2c1/C(=N/O)C(=O)N2Cc1cc(F)cc2c1OCOC2 [Compound 326]	< 1000
O=C(O)CCCN(CCCC(=O)O)c1ccc2c(c1)/C(=N/O)C(=O)N2Cc1cc(F)cc2c1OCOC2 [Compound 309]	≥ 1000
O=C1/C(=N\O)c2cc(Br)ccc2N1Cc1ccc(F)cc1 [Compound 24]	≥ 1000
COc1cc(CN2C(=O)/C(=N\O)c3c(-c4ccccc4)cccc32)cc(OC)c1 [Compound 200]	≥ 1000
COc1ccc(C(=O)Nc2ccc3c(c2)N(Cc2cc(F)cc4c2OCOC4)C(=O)/C3=N\O)cc1 [Compound 338]	≥ 1000
Cc1cccc(CN2C(=O)/C(=N\O)c3cc(Cl)ccc32)c1 [Compound 49]	≥ 1000
Cc1cccc(CN2C(=O)/C(=N\O)c3cc(F)ccc32)c1 [Compound 57]	≥ 1000
O=C1/C(=N\O)c2c(Br)cccc2N1Cc1cc(F)cc2c1OCOC2 [Compound 201]	< 1000
COC(=O)c1cccc(CN2C(=O)/C(=N/O)c3ccc(-c4cccc(OC)c4)cc32)c1 [Compound 176]	≥ 1000
O=C(NCc1cccnc1)c1ccc2c(c1)N(Cc1cc(F)cc3c1OCOC3)C(=O)/C2=N\O [Compound 237]	≥ 1000
COc1ccc(CN2C(=O)/C(=N\O)c3ccccc32)cc1 [Compound 61]	≥ 1000
O=C1/C(=N\O)c2ccccc2N1Cc1cccc(Oc2ccccc2)c1 [Compound 66]	≥ 1000
COc1cc(CN2C(=O)/C(=N\O)c3ccccc32)cc(OC)c1 [Compound 68]	< 1000
CCNC(=O)c1ccc2c(c1)N(Cc1cc(F)cc3c1OCOC3)C(=O)/C2=N\O [Compound 291]	≥ 1000
COc1cccc(C(=O)Nc2ccc3c(c2)N(Cc2cc(F)cc4c2OCOC4)C(=O)/C3=N\O)c1 [Compound 250]	< 1000
CN(C)CC(=O)Nc1ccc2c(c1)N(Cc1cc(F)cc3c1OCOC3)C(=O)/C2=N\O [Compound 223]	≥ 1000
CC(C)S(=O)(=O)Nc1ccc2c(c1)N(Cc1cc(F)cc3c1OCOC3)C(=O)/C2=N\O [Compound 264]	≥ 1000
O=C1/C(=N/O)c2ccc(-c3ccsc3)cc2N1CCOc1ccccc1 [Compound 183]	≥ 1000
N#Cc1ccccc1CN1C(=O)/C(=N\O)c2cc(F)ccc21 [Compound 80]	≥ 1000
CC(C)c1ccc(-c2ccc3c(c2)N(Cc2cc(F)cc4c2OCOC4)C(=O)/C3=N\O)cc1 [Compound 334]	≥ 1000
C[Si](C)(C)C#Cc1cccc2c1/C(=N/O)C(=O)N2Cc1cc(F)cc2c1OCOC2 [Compound 299]	≥ 1000
CC(C)CCNC(=O)c1ccc2c(c1)N(Cc1cc(F)cc3c1OCOC3)C(=O)/C2=N\O [Compound 294]	≥ 1000
Nc1ccc2c(c1)N(Cc1cc(F)cc3c1OCOC3)C(=O)/C2=N\O [Compound 208]	< 1000

SMILES	Ki [nM]
Cc1cccc(CN2C(=O)/C(=N\O)c3ccccc32)c1 [Compound 19]	≥ 1000
O=C1/C(=N\O)c2cc(Cl)ccc2N1Cc1ccccc1 [Compound 45]	≥ 1000
CC(C)(C)NC(=O)c1ccc2c(c1)N(Cc1cc(F)cc3c1OCOC3)C(=O)/C2=N\O [Compound 241]	≥ 1000
O=C1/C(=N\O)c2cc(NCc3ccccc3)ccc2N1Cc1cc(F)cc2c1OCOC2 [Compound 300]	≥ 1000
Cc1cc(C)c2c(c1)/C(=N/O)C(=O)N2Cc1cc(F)cc2c1OCOC2 [Compound 95]	≥ 1000
O=C1/C(=N\O)c2ccc(-c3ccccc3)cc2N1CC1OCCO1 [Compound 163]	≥ 1000
O=C(Nc1ccc2c(c1)/C(=N/O)C(=O)N2Cc1ccccc1)c1ccccc1 [Compound 115]	≥ 1000
CS(=O)(=O)c1ccc(CN2C(=O)/C(=N\O)c3cc(F)ccc32)cc1 [Compound 83]	≥ 1000
O=C1/C(=N\O)c2ccccc2N1Cc1cccc(C(F)(F)F)c1 [Compound 6]	≥ 1000
C[C@H](NC(=O)OCC1c2ccccc2-c2ccccc21)C(=O)Nc1ccc2c(c1)N(Cc1cc(F)cc3c1OCOC3)C(=O)/C2=N\O [Compound 352]	≥ 1000
CC(=O)c1ccc(-c2ccc3c(c2)N(Cc2cc(F)cc4c2OCOC4)C(=O)/C3=N\O)cc1 [Compound 330]	< 1000
O=Cc1ccccc1-c1ccc2c(c1)N(Cc1cc(F)cc3c1OCOC3)C(=O)/C2=N\O [Compound 315]	< 1000
COc1ccc(CNc2ccc3c(c2)/C(=N/O)C(=O)N3Cc2cc(F)cc3c2OCOC3)cc1O [Compound 305]	≥ 1000
Cc1cc(C)c2c(c1)/C(=N/O)C(=O)N2Cc1cccc([N+](=O)[O-])c1 [Compound 88]	≥ 1000
C=Cc1cccc2c1/C(=N/O)C(=O)N2Cc1cc(F)cc2c1OCOC2 [Compound 307]	< 1000
CC(=O)NCC(=O)NCC(=O)Nc1ccc2c(c1)N(Cc1cc(F)cc3c1OCOC3)C(=O)/C2=N\O [Compound 347]	≥ 1000
Cc1cc(Cl)cc2c1N(Cc1nc3ccccc3[nH]1)C(=O)/C2=N\O [Compound 111]	≥ 1000
COc1ccccc1CNC(=O)c1ccc2c(c1)N(Cc1cc(F)cc3c1OCOC3)C(=O)/C2=N\O [Compound 231]	≥ 1000
COc1cc(CN2C(=O)/C(=N\O)c3ccc(Br)cc32)cc(OC)c1 [Compound 151]	< 1000
CC(=O)Nc1cccc(-c2ccc3c(c2)/C(=N/O)C(=O)N3Cc2cc(F)cc3c2OCOC3)c1 [Compound 279]	≥ 1000
COC(=O)CCCN1C(=O)/C(=N/O)c2ccc(CBr)cc21 [Compound 190]	≥ 1000
O=C1/C(=N\O)c2c(-c3cccc(F)c3)cccc2N1Cc1cc(F)cc2c1OCOC2 [Compound 203]	≥ 1000
Cc1ccccc1C(=O)c1ccc2c(c1)/C(=N\O)C(=O)N2Cc1cc(F)cc2c1OCOC2 [Compound 268]	< 1000
CCC(=O)Nc1ccc2c(c1)N(Cc1cc(F)cc3c1OCOC3)C(=O)/C2=N\O [Compound 344]	< 1000
O=C1/C(=N\O)c2cc(Br)ccc2N1Cc1ccccc1 [Compound 23]	≥ 1000
Cc1ccc2c(c1)/C(=N/O)C(=O)N2Cc1ccc([N+](=O)[O-])cc1 [Compound 39]	≥ 1000

SMILES	Ki [nM]
Cc1ccc(-c2ccc3c(c2)N(Cc2cc(F)cc4c2OCOC4)C(=O)/C3=N\O)cc1C [Compound 331]	< 1000
COc1ccccc1-c1nc(CN2C(=O)/C(=N\O)c3cc(F)ccc32)no1 [Compound 81]	≥ 1000
O=C1/C(=N\O)c2ccccc2N1Cc1csc(-c2ccc(Cl)cc2)n1 [Compound 71]	≥ 1000
CCC(NC(=O)c1ccc2c(c1)N(Cc1cc(F)cc3c1OCOC3)C(=O)/C2=N\O)c1ccccc1 (centres unmarked) [Compound 243]	≥ 1000
O=C1/C(=N\O)c2cc(F)ccc2N1Cc1ccc(F)cc1 [Compound 54]	≥ 1000
CCS(=O)(=O)Nc1ccc2c(c1)N(Cc1cc(F)cc3c1OCOC3)C(=O)/C2=N\O [Compound 263]	< 1000
O=C(Nc1ccc2c(c1)N(Cc1cc(F)cc3c1OCOC3)C(=O)/C2=N\O)c1ccc(Cl)cc1Cl [Compound 252]	≥ 1000
O=C1/C(=N\O)c2cc(Cl)ccc2N1Cc1ccc(Cl)cc1 [Compound 3]	≥ 1000
CN1CCCC1CCNC(=O)c1ccc2c(c1)N(Cc1cc(F)cc3c1OCOC3)C(=O)/C2=N\O (centres unmarked) [Compound 297]	≥ 1000
COc1ccc2c(CN3C(=O)/C(=N/O)c4ccc(CBr)cc43)cc(=O)oc2c1 [Compound 188]	≥ 1000
O=C1/C(=N\O)c2ccccc2N1Cc1ncc(C(F)(F)F)cc1Cl [Compound 70]	≥ 1000
Cc1cc(C)c2c(c1)/C(=N/O)C(=O)N2Cc1csc(-c2ccc(Cl)cc2)n1 [Compound 96]	≥ 1000
CCCNC(=O)c1ccc2c(c1)N(Cc1cc(F)cc3c1OCOC3)C(=O)/C2=N\O [Compound 293]	≥ 1000
O=C(c1ccc2c(c1)/C(=N\O)C(=O)N2Cc1cc(F)cc2c1OCOC2)c1cccc(Cl)c1Cl [Compound 355]	< 1000
CC(C)CC(=O)Nc1ccc2c(c1)N(Cc1cc(F)cc3c1OCOC3)C(=O)/C2=N\O [Compound 345]	< 1000
COc1cc(CN2C(=O)/C(=N\O)c3cc(C)cc(C)c32)cc(OC)c1 [Compound 94]	≥ 1000
COc1cccc(OC)c1C(=O)Nc1ccc2c(c1)N(Cc1cc(F)cc3c1OCOC3)C(=O)/C2=N\O [Compound 340]	≥ 1000
CC(=O)Nc1cccc(-c2ccc3c(c2)N(Cc2cc(F)cc4c2OCOC4)C(=O)/C3=N\O)c1 [Compound 317]	< 1000
O=C1/C(=N\O)c2cc([N+](=O)[O-])ccc2N1Cc1ccc(Cl)cc1Cl [Compound 11]	≥ 1000
O=C(Nc1cccc(F)c1)c1ccc2c(c1)N(Cc1cc(F)cc3c1OCOC3)C(=O)/C2=N\O [Compound 229]	≥ 1000
Cc1ccc2c(c1)/C(=N/O)C(=O)N2Cc1ccc(Cl)cc1 [Compound 14]	≥ 1000
O=C1/C(=N\O)c2cc(F)ccc2N1Cc1cccc([N+](=O)[O-])c1 [Compound 79]	≥ 1000
Cc1cc(Cl)cc2c1N(Cc1cccc(Oc3ccccc3)c1)C(=O)/C2=N\O [Compound 100]	≥ 1000
Cc1ccc(CN2C(=O)/C(=N\O)c3ccccc32)cc1 [Compound 8]	≥ 1000
O=C1/C(=N\O)c2cc(Br)ccc2N1Cc1cccc(F)c1 [Compound 28]	≥ 1000
